US8163870B2, “Channel forming peptides” (Kansas State University Research Foundation, priority 2000, dated 2012)

Tests used:
[1] = system: tight junction-associated proteins (actin, ZO-1, occludin) in MDCK monolayers; experiment: Confocal microscopy, immunolocalization of tight-junction associated proteins; assay type: cell-based, canine; conditions: peptides 100 μM; EDTA 6 mM and hypotonic Ringer
Description: Confocal microscopy. Immunoreactivity to antibodies raised against tight-junction associated proteins was assessed by confocal microscopy (Zeiss, Thornwood, N.Y.). Samples for visualization were prepared from monolayers used in electrophysiological studies. After removal from Ussing chambers, monolayers were washed in Ringer solution and fixed overnight in 10% neutral buffered formalin. Monolayers were washed 3 times in PBS, permeabilized with 0.1% Triton X-100 in PBS, blocked with goat serum, and then exposed to primary antibody in a 1:500 dilution (rat anti-ZO-1, cat# MAB120, Chemicon, Temecula, Calif. or rabbit anti-occludin, cat.# 71-1500; Zymed, San Francisco, Calif.) for 1 hour at room temperature. After being washed 3 times in PBS, FITC-conjugated goat anti-rat (cat #AP136F, Chemicon) or goat anti-rabbit (cat #FI-1000; Vector Laboratories, Burlingame, Calif.) secondary antibodies were employed (1:1000 dilution) with exposure occurring for 1 hour at room temperature. TRITC-labeled phalloidin (0.1 mg/ml in methanol; Sigma Chemical Co.) was used for F-actin localization was applied concurrently with the secondary antibody. A KrAr laser was used to excite the fluorophores. Filter sets used for fluorescein were BP485/20 nm for excitation and BP515-540 nm for emission and for rhodamine BP530-585 nm for excitation and LP590 nm for emission.

[2] = system: MDCK monolayers; experiment: FITC-dextran permeability assay; assay type: cell-based, canine; conditions: SEQ ID NO. 27 100 μM; EDTA 3 mM in hypotonic Ringer
Description: Confluent MDCK cell monolayers were washed once with Ringer solution and placed in one of three treatments containing FITC-conjugated dextran (Sigma Chemical Co.) in the apical compartment; 1, Ringer solution in the apical and basolateral compartments; 2, Ringer solution apical and basolateral with SEQ ID No. 27 (also referred to herein as NC-1059) (100 μM) in the apical solution; 3, EDTA (3 mM) in Ringer solution that had been diluted 1:1 with distilled water in both the apical and basolateral compartments. Monolayers are incubated at 37° C. for 60 minutes and the solution in the basolateral well sampled to quantify fluorescently labeled dextran. Monolayers are then washed with Ringer solution to remove peptide, EDTA, and dextran, placed in tissue culture medium and returned to the incubator for two days before the assay was conducted again.
FITC-dextran permeability assay. Epithelial permeability to uncharged solutes of various sizes was assessed with monolayers grown on Snapwell tissue culture inserts as described above. […] Monolayers were incubated at 37° C. for 60 minutes and the solution in the basolateral well was sampled to quantify fluorescently labeled dextran. […]

[3] = system: cultured CF monolayers; experiment: Glutathione transport in cultured CF monolayers; assay type: cell-based
[4] = system: MDCK cells; assay type: cell-based, canine; conditions: peptide at 500 μM
Description: Cell culture: MDCK cells were a generous gift of Dr. Lawrence Sullivan (Kansas University Medical Center, Kansas City, Kans.). T84 cells were obtained from Dr. Daniel Devor (University of Pittsburgh, Pittsburgh, Pa.). MDCK and T84 cells were maintained with similar culture procedures. The culture medium was a 1:1 mixture of DMEM and Ham's F-12 (Gibco BRL, Grand Island, N.Y.) supplemented with 5% heat inactivated fetal bovine serum (BioWhittaker, Walkersville, Md.), and 1% penicillin and streptomycin (Gibco BRL). Cells were grown in plastic culture flasks in a humidified environment with 5% CO2 at 37° C. and passaged every 5-7 days. For Ussing chamber experiments, cells were plated on 1.13 cm^2 permeable supports (Snapwell™, Costar®, Cambridge, Mass.) at a density of approximately 1×10^6 cells/well and incubated in DMEM/F-12 supplemented with FBS and antibiotics (changed every other day) for 2-3 weeks prior to being mounted in modified Ussing flux chambers.
To form monolayers, the cells were plated onto the upper surface of a permeable membrane that forms the bottom of a plastic well. Two types were used. One was the Transwell™ insert (Costar®, Cambridge, Mass.) supported in a six-well tissue culture plate and the other type was the Snapwell™ (Costar®, Cambridge, Mass.). During incubation, the medium was replaced at 48-72 hour intervals. Confluent monolayers formed within 72 hours. Experiments were performed on the monolayers 6-9 days after the initial plating. Net fluid secretion responses were optimal after six days.
Solutions: Ringer solution was made fresh daily. The final concentration (in mM) was 120 NaCl, 25 NaHCO3 3.3 KH2HPO4, 0.8 K2HPO4, 1.2 MgCl2, 1.2 CaCl2, (290±2 mOsmol). All components of the Ringer solution were from Sigma (St. Louis, Mo.).
(§1) Epithelial electrical measurements: Transepithelial ion transport was evaluated in a modified Ussing chamber (Model DCV9, Navicyte, San Diego, Calif.). The Ussing chamber's fluid resistance compensation was completed in Ringer solution (see below). For electrical measurements cell monolayers were bathed in Ringer solution maintained at 37° C. and continuously bubbled with 5% CO2:95% O2. The transepithelial membrane potential (Vte) was clamped to zero and the transepithelial short circuit current (Isc), an indicator of net ion transport, was measured continuously with a voltage clamp apparatus (Model 558C, University of Iowa, Department of Bioengineering, Iowa City, Iowa). Data were digitally acquired at 1 Hz with a Macintosh computer (Apple Computer, Cuppertino, Calif.) using Aqknowledge software (ver. 3.2.6, BIOPAC Systems, Santa Barbara, Calif.) with an MP100A-CE interface.
as §1, with “Transepithelial” for “Epithelial electrical measurements: Transepithelial”, “(composition (in mM) was 120 NaCl, 25 NaHCO3 3.3 KH2HPO4, 0.8 K2HPO4, 1.2 MgCl2, 1.2 CaCl2).” for “(see below).”
MDCK cell monolayers (in the presence of 1-EBIO to maximize basolateral membrane K^+ conductance) were exposed on the apical aspect to escelating peptide concentrations. Maximal change in Isc (relative to the Isc prior to peptide exposure) was recorded following each increment in apical peptide concentration. […]

[5] = Chemical cross-linking (BS3) and SDS-PAGE, oligomeric state of peptide in solution; assay type: physicochemical; conditions: SDS-PAGE
Description: Chemical cross-linking: In order to visualize the oligomeric state of the peptide in solution a chemical cross-linking protocol was developed. Calculated amounts of each peptide were weighted out and dissolved in 1 mL of distilled water to make 1 mM stock solutions. A 100 mM stock solution of the chemical crosslinking reagent Bis[Sulfosuccinimidyl]suberate, BS^3, (Pierce Chemical Co., Rockford, Ill.) was prepared in dimethyl sulfoxide (DMSO). […] Sample were allowed to sit at room temperature for 15 minutes. 1-6 μL of 100 mM BS^3 was then added to the previously prepared peptide such that the crosslinking reagent was present in 20-fold excess. The final volume for each reaction was 100 μL. […] Each sample was then vacuum dried. Later dry samples were re-dissolved in 60 μL of distilled water along with 60 μL of a 2×-tricine SDS sample buffer (Novex, San Diego). All samples were then boiled at 100° C. for 5 minutes. 5 μL aliquots of each SDS boiled sample was then loaded into separate lanes of pre-cast, 1.0 mm, 10 well, 10-20% tricine gels (Novex, San Diego). Pre-made Novex tricine-SDS buffer was used in the electrophoresis. The reference well contained 1 μL of MultiMark® multi-colored molecular weight standard (Novex, San Diego). The electrophoresis was carried out at a constant 110 Volts for 90 minutes. […]

Question: With `O=C(O)CN(CCN(CC(=O)O)CC(=O)O)CC(=O)O` [EDTA] as the molecule, how does the “distribution of actin, occludin and ZO-1 immunoreactivity” value [1] read?
Answer: profound changes in localization of the peri-junctional actin ring, as well as the distribution of ZO-1

Question: What about the “permeation of 20 kDa FITC-dextran conjugate” value [2] of the same molecule?
Answer: highest level of permeation

Question: With “PARVGLGITT VLTMTTQSSG SRAKKKK (PARVGLGITTVLTMTTQSSGSRAKKKK; Modified Homo sapiens) [SEQ ID No. 2, reference compound]” as the molecule, how does the glutathione transport [3] read?
Answer: active but to a much lesser extent

Question: What about the “Activity profile in MDCK cells” value [4] of the same molecule?
Answer: 12.5 at 500 μM μA/cm2

Question: And the “aggregation state in solution” value [5]?
Answer: only trace amounts of aggregates higher than trimer
